Measurements reported in patent US12065442B2, “Tropomyosin receptor kinase (TRK) degradation compounds and methods of use” (Cullgen (Shanghai), Inc., priority 2018, dated 2024).

Test system: KM12 cells
Experiment: Cell viability assay (CellTiter-Glo) in KM12 cells
Type: cell-based
Details: Homo sapiens, 72 h; Table 2; KM12 cell viability, CellTiter-Glo, 3 days; read-out: IC50

Row | Compound | IC50 [nM]
1 | Cc1ncsc1-c1ccc(CNC(=O)[C@@H]2C[C@@H](O)CN2C(=O)[C@@H](NC(=O)CNC(=O)CN2CCN(c3ccc(C(=O)Nc4n[nH]c5ccc(Cc6cc(F)cc(F)c6)cc45)c(NC4CCOCC4)c3)CC2)C(C)(C)C)cc1 [CPD-063, (2S,4R)-1-((S)-2-(2-(2-(4-(4-((5-(3,5-Difluorobenzyl)-1H-indazol-3-yl)carbamoyl)-3-((tetrahydro-2H-pyran-4-yl)amino)phenyl)piperazin-1-yl)acetamido)acetamido)-3,3-dimethylbutanoyl)-4-hydroxy-N-(4-(4-methylthiazol-5-yl)benzyl)pyrrolidine-2-carboxamide] | > 1000
2 | O=C(CN1CCN(c2ccc(C(=O)Nc3n[nH]c4ccc(Cc5cc(F)cc(F)c5)cc34)c(NC3CCOCC3)c2)CC1)NCCOCCOCCOCCNc1cccc2c1C(=O)N(C1CCC(=O)NC1=O)C2=O (stereo not drawn) [CPD-064, N-(5-(3,5-difluorobenzyl)-1H-indazol-3-yl)-4-(4-(14-((2-(2,6-dioxopiperidin-3-yl)-1,3-dioxoisoindolin-4-yl)amino)-2-oxo-6,9,12-trioxa-3-azatetradecyl)piperazin-1-yl)-2-((tetrahydro-2H-pyran-4-yl)amino)benzamide] | 14.9
3 | O=C(CN1CCN(c2ccc(C(=O)Nc3n[nH]c4ccc(Cc5cc(F)cc(F)c5)cc34)c(NC3CCOCC3)c2)CC1)NCCOCCOCCOCCOCCOCCNc1cccc2c1C(=O)N(C1CCC(=O)NC1=O)C2=O (stereo not drawn) [CPD-065, N-(5-(3,5-difluorobenzyl)-1H-indazol-3-yl)-4-(4-(20-((2-(2,6-dioxopiperidin-3-yl)-1,3-dioxoisoindolin-4-yl)amino)-2-oxo-6,9,12,15,18-pentaoxa-3-azaicosyl)piperazin-1-yl)-2-((tetrahydro-2H-pyran-4-yl)amino)benzamide] | 72.6

Same assay, conditions: Homo sapiens, 72 h; Table 3; KM12 cell viability, CellTiter-Glo, 3 days; read-out: IC50

Row | Compound | IC50 [nM]
4 | CN1CCN(c2ccc(C(=O)Nc3n[nH]c4ccc(Cc5cc(F)cc(F)c5)cc34)c(NC3CCOCC3)c2)CC1 [Entrectinib, entrectinib, reference compound] | 4.3
5 | OC1CCN(c2cc(-c3cccc(-c4cnc5ccc(N6CCC[C@@H]6c6cccc(F)c6)nn45)n3)ccn2)CC1 [GNF-8625, reference compound] | 46.7
6 | O=C(CN1CCN(c2cccc(-c3cnc4ccc(N5CCC[C@@H]5c5cccc(F)c5)nn34)n2)CC1)NCCCCCCCCNc1cccc2c1C(=O)N(C1CCC(=O)NC1=O)C2=O (stereo partly drawn) [TR-102, N-(8-((2-(2,6-dioxopiperidin-3-yl)-1,3-dioxoisoindolin-4-yl)amino)octyl)-2-(4-(6-(6-((R)-2-(3-fluorophenyl)pyrrolidin-1-yl)imidazo[1,2-b]pyridazin-3-yl)pyridin-2-yl)piperazin-1-yl)acetamide] | 44.4
7 | O=C(CN1CCN(c2cccc(-c3cnc4ccc(N5CCC[C@@H]5c5cccc(F)c5)nn34)n2)CC1)NCCCCCNc1cccc2c1C(=O)N(C1CCC(=O)NC1=O)C2=O (stereo partly drawn) [TR-103, N-(5-((2-(2,6-dioxopiperidin-3-yl)-1,3-dioxoisoindolin-4-yl)amino)pentyl)-2-(4-(6-(6-((R)-2-(3-fluorophenyl)pyrrolidin-1-yl)imidazo[1,2-b]pyridazin-3-yl)pyridin-2-yl)piperazin-1-yl)acetamide] | 13.5
8 | O=C(CN1CCN(c2cccc(-c3cnc4ccc(N5CCC[C@@H]5c5cccc(F)c5)nn34)n2)CC1)NCCOCCOCCOCCOCCOCCNc1cccc2c1C(=O)N(C1CCC(=O)NC1=O)C2=O (stereo partly drawn) [TR-104, N-(17-((2-(2,6-dioxopiperidin-3-yl)-1,3-dioxoisoindolin-4-yl)amino)-3,6,9,12,15-pentaoxaheptadecyl)-2-(4-(6-(6-((R)-2-(3-fluorophenyl)pyrrolidin-1-yl)imidazo[1,2-b]pyridazin-3-yl)pyridin-2-yl)piperazin-1-yl)acetamide] | 8.1
9 | O=C(CN1CCN(c2cccc(-c3cnc4ccc(N5CCC[C@@H]5c5cccc(F)c5)nn34)n2)CC1)NCCOCCOCCNc1cccc2c1C(=O)N(C1CCC(=O)NC1=O)C2=O (stereo partly drawn) [TR-105, N-(2-(2-(2-((2-(2,6-dioxopiperidin-3-yl)-1,3-dioxoisoindolin-4-yl)amino)ethoxy)ethoxy)ethyl)-2-(4-(6-(6-((R)-2-(3-fluorophenyl)pyrrolidin-1-yl)imidazo[1,2-b]pyridazin-3-yl)pyridin-2-yl)piperazin-1-yl)acetamide] | 10.1
10 | O=C(CN1CCN(c2cccc(-c3cnc4ccc(N5CCC[C@@H]5c5cccc(F)c5)nn34)n2)CC1)NCCOCCNc1cccc2c1C(=O)N(C1CCC(=O)NC1=O)C2=O (stereo partly drawn) [TR-106, N-(2-(2-((2-(2,6-dioxopiperidin-3-yl)-1,3-dioxoisoindolin-4-yl)amino)ethoxy)ethyl)-2-(4-(6-(6-((R)-2-(3-fluorophenyl)pyrrolidin-1-yl)imidazo[1,2-b]pyridazin-3-yl)pyridin-2-yl)piperazin-1-yl)acetamide] | 3.8
11 | O=C(CN1CCN(c2cccc(-c3cnc4ccc(N5CCC[C@@H]5c5cccc(F)c5)nn34)n2)CC1)NCCCCNc1cccc2c1C(=O)N(C1CCC(=O)NC1=O)C2=O (stereo partly drawn) [TR-107, N-(4-((2-(2,6-dioxopiperidin-3-yl)-1,3-dioxoisoindolin-4-yl)amino)butyl)-2-(4-(6-(6-((R)-2-(3-fluorophenyl)pyrrolidin-1-yl)imidazo[1,2-b]pyridazin-3-yl)pyridin-2-yl)piperazin-1-yl)acetamide] | 8.4
12 | O=C(CN1CCN(c2cccc(-c3cnc4ccc(N5CCC[C@@H]5c5cccc(F)c5)nn34)n2)CC1)NCCOCCOCCOCCOCCNc1cccc2c1C(=O)N(C1CCC(=O)NC1=O)C2=O (stereo partly drawn) [TR-108, N-(14-((2-(2,6-dioxopiperidin-3-yl)-1,3-dioxoisoindolin-4-yl)amino)-3,6,9,12-tetraoxatetradecyl)-2-(4-(6-(6-((R)-2-(3-fluorophenyl)pyrrolidin-1-yl)imidazo[1,2-b]pyridazin-3-yl)pyridin-2-yl)piperazin-1-yl)acetamide] | 4
13 | O=C(CN1CCN(c2cccc(-c3cnc4ccc(N5CCC[C@@H]5c5cccc(F)c5)nn34)n2)CC1)NCCCNc1cccc2c1C(=O)N(C1CCC(=O)NC1=O)C2=O (stereo partly drawn) [TR-109, N-(3-((2-(2,6-dioxopiperidin-3-yl)-1,3-dioxoisoindolin-4-yl)amino)propyl)-2-(4-(6-(6-((R)-2-(3-fluorophenyl)pyrrolidin-1-yl)imidazo[1,2-b]pyridazin-3-yl)pyridin-2-yl)piperazin-1-yl)acetamide] | 3.6
14 | O=C(CN1CCN(c2cccc(-c3cnc4ccc(N5CCC[C@@H]5c5cccc(F)c5)nn34)n2)CC1)NCCCCCCCNc1cccc2c1C(=O)N(C1CCC(=O)NC1=O)C2=O (stereo partly drawn) [TR-110, N-(7-((2-(2,6-dioxopiperidin-3-yl)-1,3-dioxoisoindolin-4-yl)amino)heptyl)-2-(4-(6-(6-((R)-2-(3-fluorophenyl)pyrrolidin-1-yl)imidazo[1,2-b]pyridazin-3-yl)pyridin-2-yl)piperazin-1-yl)acetamide] | 35.9
15 | O=C(CN1CCN(c2cccc(-c3cnc4ccc(N5CCC[C@@H]5c5cccc(F)c5)nn34)n2)CC1)NCCCCCCNc1cccc2c1C(=O)N(C1CCC(=O)NC1=O)C2=O (stereo partly drawn) [TR-111, N-(6-((2-(2,6-dioxopiperidin-3-yl)-1,3-dioxoisoindolin-4-yl)amino)hexyl)-2-(4-(6-(6-((R)-2-(3-fluorophenyl)pyrrolidin-1-yl)imidazo[1,2-b]pyridazin-3-yl)pyridin-2-yl)piperazin-1-yl)acetamide] | 19.7
16 | O=C1CCC(N2C(=O)c3ccc(NCCOCCOCCC(=O)N4CCN(c5cccc(-c6cnc7ccc(N8CCC[C@@H]8c8cccc(F)c8)nn67)n5)CC4)cc3C2=O)C(=O)N1 (stereo partly drawn) [TR-113, 2-(2,6-Dioxopiperidin-3-yl)-5-((2-(2-(3-(4-(6-(6-((R)-2-(3-fluorophenyl)pyrrolidin-1-yl)imidazo[1,2-b]pyridazin-3-yl)pyridin-2-yl)piperazin-1-yl)-3-oxopropoxy)ethoxy)ethyl)amino)isoindoline-1,3-dione] | 1.3
17 | O=C1CCC(N2C(=O)c3ccc(NCCOCCOCCOCCC(=O)N4CCN(c5cccc(-c6cnc7ccc(N8CCC[C@@H]8c8cccc(F)c8)nn67)n5)CC4)cc3C2=O)C(=O)N1 (stereo partly drawn) [TR-114, 2-(2,6-Dioxopiperidin-3-yl)-5-((2-(2-(2-(3-(4-(6-(6-((R)-2-(3-fluorophenyl)pyrrolidin-1-yl)imidazo[1,2-b]pyridazin-3-yl)pyridin-2-yl)piperazin-1-yl)-3-oxopropoxy)ethoxy)ethoxy)ethyl)amino)isoindoline-1,3-dione] | 16.9
18 | O=C1CCC(N2C(=O)c3ccc(NCCCCC(=O)N4CCN(c5cccc(-c6cnc7ccc(N8CCC[C@@H]8c8cccc(F)c8)nn67)n5)CC4)cc3C2=O)C(=O)N1 (stereo partly drawn) [TR-115, 2-(2,6-Dioxopiperidin-3-yl)-5-((5-(4-(6-(6-((R)-2-(3-fluorophenyl)pyrrolidin-1-yl)imidazo[1,2-b]pyridazin-3-yl)pyridin-2-yl)piperazin-1-yl)-5-oxopentyl)amino)isoindoline-1,3-dione] | 0.9
19 | O=C1CCC(N2C(=O)c3ccc(NCCOCCOCCOCCOCCOCCC(=O)N4CCN(c5cccc(-c6cnc7ccc(N8CCC[C@@H]8c8cccc(F)c8)nn67)n5)CC4)cc3C2=O)C(=O)N1 (stereo partly drawn) [TR-116, 2-(2,6-Dioxopiperidin-3-yl)-5-((18-(4-(6-(6-((R)-2-(3-fluorophenyl)pyrrolidin-1-yl)imidazo[1,2-b]pyridazin-3-yl)pyridin-2-yl)piperazin-1-yl)-18-oxo-3,6,9,12,15-pentaoxaoctadecyl)amino)isoindoline-1,3-dione] | 2
20 | O=C1CCC(N2C(=O)c3ccc(NCCCCCCC(=O)N4CCN(c5cccc(-c6cnc7ccc(N8CCC[C@@H]8c8cccc(F)c8)nn67)n5)CC4)cc3C2=O)C(=O)N1 (stereo partly drawn) [TR-117, 2-(2,6-Dioxopiperidin-3-yl)-5-((7-(4-(6-(6-((R)-2-(3-fluorophenyl)pyrrolidin-1-yl)imidazo[1,2-b]pyridazin-3-yl)pyridin-2-yl)piperazin-1-yl)-7-oxoheptyl)amino)isoindoline-1,3-dione] | 4.3
21 | O=C1CCC(N2C(=O)c3ccc(NCCCCCCCC(=O)N4CCN(c5cccc(-c6cnc7ccc(N8CCC[C@@H]8c8cccc(F)c8)nn67)n5)CC4)cc3C2=O)C(=O)N1 (stereo partly drawn) [TR-118, 2-(2,6-Dioxopiperidin-3-yl)-5-((8-(4-(6-(6-((R)-2-(3-fluorophenyl)pyrrolidin-1-yl)imidazo[1,2-b]pyridazin-3-yl)pyridin-2-yl)piperazin-1-yl)-8-oxooctyl)amino)isoindoline-1,3-dione] | 6.3
